# Laboratory results published in BindingDB's records for doi:10.1021/acschembio.7b00124 (University of Helsinki, 2017).
# Where a SMILES comes first, the peptide text is derived from it. Bridges are numbered along the chain shown (N, C = ends). [ ]: non-standard residue; d: D form. ξ: configuration not given here. Thr(3ξ) = CC(O)[C@H](N)C(=O)O; hLys = NCCCCC[C@H](N)C(=O)O
# Key:
# [1] = biological target: T1, Serine protease 1 (Bos taurus, UniProt P00760); assay: Protease Inhibition Assays; settings: 37 °C
# T1 sequence (P00760 whole entry): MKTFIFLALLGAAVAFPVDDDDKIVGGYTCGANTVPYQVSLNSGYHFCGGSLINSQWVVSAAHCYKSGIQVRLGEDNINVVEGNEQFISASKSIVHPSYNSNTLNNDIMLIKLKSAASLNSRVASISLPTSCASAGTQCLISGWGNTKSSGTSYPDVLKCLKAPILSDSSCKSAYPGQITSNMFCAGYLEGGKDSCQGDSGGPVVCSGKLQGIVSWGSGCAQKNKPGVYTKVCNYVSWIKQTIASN
# Protocol: (§1) The inhibition assays were performed in 96-well microtiter plates as follows: 30 uL of the enzyme solution (trypsin [100 ug/mL] or elastase [1.5 U/mL]) and 60 uL of the buffer (50 mM Tris-HCl, 20 mM CaCl2 at pH 7.5) were pipetted into a series of six wells. A total of 10 uL of a 2000 uM peptide solution (microviridin variant) was then added to well 1 and serially diluted up to well 5; well 6 was used as the control. After completing the serial dilution of the sample, 10 uL was taken from well 5 and discarded to maintain the same volume in all wells. The plates were then incubated for 5 min at 37 °C, and subsequently 90 uL of the substrate solution (trypsin assay, N-benzoyl-DL-arginine-4-nitroanilide hydrochloride (BAPNA) [2.17 mg mL-1]; elastase assay, succinyl-Ala-Ala-Ala-p-nitroanilide (Suc-ALA3-pNA) [1 mg mL-1]) was added to each well. The enzymatic activity was measured spectrophotometrically (Varioscan Flash, Thermo Scientific) at 410 nm after incubation at 37 °C for 15 m
# [2] = biological target: Chymotrypsin-like elastase family member 1 (Bos taurus, UniProt Q28153); assay: Protease Inhibition Assays; settings: 37 °C
# Chain of Chymotrypsin-like elastase family member 1 (Q28153 whole entry): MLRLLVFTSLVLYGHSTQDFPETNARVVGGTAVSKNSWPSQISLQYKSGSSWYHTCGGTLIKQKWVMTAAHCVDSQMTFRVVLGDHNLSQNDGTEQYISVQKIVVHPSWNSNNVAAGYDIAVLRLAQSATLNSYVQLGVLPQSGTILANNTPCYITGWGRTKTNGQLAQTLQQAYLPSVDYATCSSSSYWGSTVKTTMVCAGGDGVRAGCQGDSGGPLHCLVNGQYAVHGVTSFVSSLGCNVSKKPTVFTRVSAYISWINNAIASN
# Protocol: as §1
IC50 [1] [nM],IC50 [2] [nM],Compound
28.4,–,"CC(C)[C@H](NC(=O)[C@@H](N)[C@@H](C)O)C(=O)N[C@@H]1C(=O)N[C@@H](CCCNC(=N)N)C(=O)N[C@H]2CCCCNC(=O)C[C@@H](C(=O)N[C@@H](Cc3ccc(O)cc3)C(=O)O)NC(=O)[C@@H]3CCC(=O)OC[C@H](NC(=O)[C@@H]4CCCN4C(=O)[C@H](Cc4ccc(O)cc4)NC2=O)C(=O)N[C@@H](CC(=O)OC1C)C(=O)N[C@@H](Cc1c[nH]c2ccccc12)C(=O)N3 (some centres undefined) [MdnA3] (H-TV[Thr(3ξ)]RKYPSDWEDY-OH; ester 3-9, 8-11; lactam 5-12)"
21.5,–,"CC(C)[C@H](NC(=O)[C@@H](N)Cc1ccc(O)cc1)C(=O)N[C@@H]1C(=O)N[C@@H](CCCCCN)C(=O)N[C@H]2CCCCNC(=O)CC[C@@H](C(=O)N[C@@H](Cc3ccc(O)cc3)C(=O)O)NC(=O)[C@@H]3CCC(=O)OC[C@H](NC(=O)[C@@H]4CCCN4C(=O)[C@H](Cc4ccc(O)cc4)NC2=O)C(=O)N[C@@H](CC(=O)OC1C)C(=O)N[C@@H](Cc1c[nH]c2ccccc12)C(=O)N3 (some centres undefined) [MdnA6] (H-YV[Thr(3ξ)][hLys]KYPSDWEEY-OH; ester 3-9, 8-11; lactam 5-12)"
–,1050,"CC(C)C[C@@H]1NC(=O)[C@@H](NC(=O)[C@H](CC(N)=O)NC(=O)[C@H](CCC(N)=O)NC(=O)[C@@H](N)Cc2ccc(O)cc2)C(C)OC(=O)C[C@@H]2NC(=O)[C@@H]3COC(=O)CC[C@H](NC(=O)[C@H](Cc4c[nH]c5ccccc45)NC2=O)C(=O)N[C@H](C(=O)N[C@@H](Cc2ccc(O)cc2)C(=O)O)CCC(=O)NCCCC[C@H](NC1=O)C(=O)N[C@@H](Cc1ccc(O)cc1)C(=O)N1CCC[C@H]1C(=O)N3 (some centres undefined) [MdnA7] (H-YQN[Thr(3ξ)]LKYPSDWEEY-OH; ester 4-10, 9-12; lactam 6-13)"
–,21800,"CC(C)C[C@@H]1NC(=O)[C@@H](NC(=O)[C@H](C)N)C(C)OC(=O)C[C@@H]2NC(=O)[C@@H]3COC(=O)CC[C@H](NC(=O)[C@H](Cc4c[nH]c5ccccc45)NC2=O)C(=O)N[C@H](C(=O)N[C@@H](Cc2ccc(O)cc2)C(=O)O)CCC(=O)NCCCC[C@H](NC1=O)C(=O)N[C@@H](Cc1ccc(O)cc1)C(=O)N1CCC[C@H]1C(=O)N3 (some centres undefined) [MdnA8] (H-A[Thr(3ξ)]LKYPSDWEEY-OH; ester 2-8, 7-10; lactam 4-11)"
